BindingDB's records for doi:10.1021/bi200655g (Glaxosmithkline, 2011)
pKi: −log10 of the molar value.

What follows are molecules tested against T1, Peptide deformylase (Streptococcus pneumoniae (strain ATCC BAA-255 / R6), UniProt Q8DP79) (assay: Binding Assay).
T1 sequence (Q8DP79 whole entry): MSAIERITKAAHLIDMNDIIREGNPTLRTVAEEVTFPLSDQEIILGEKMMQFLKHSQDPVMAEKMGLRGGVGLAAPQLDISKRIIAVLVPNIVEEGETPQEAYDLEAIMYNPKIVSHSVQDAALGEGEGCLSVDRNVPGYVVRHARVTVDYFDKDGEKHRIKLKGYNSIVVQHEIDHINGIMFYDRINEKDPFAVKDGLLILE
Description: Binding assay using PDF inhibitors.

| SMILES | pKi |
| --- | --- |
| CNC(=O)c1cccc(C)c1Nc1nc(N2CCN(c3ccccc3Cl)CC2)nc(N2CSC[C@H]2C(=O)NCC(=O)NO)n1 [PDF inhibitor, compound 2] | 6.48 |
| CNC(=O)c1cccc(C)c1Nc1nc(N2CCN(c3ccccc3Cl)CC2)nc(N2CSC[C@H]2COCC(=O)NO)n1 [PDF inhibitor, compound 6] | 6.67 |
| Cc1ccccc1Nc1nc(N2CCN(c3ccccc3Cl)CC2)nc(N2CSC[C@H]2C(=O)NCC(=O)NO)n1 [PDF inhibitor, compound 7] | 6.19 |

Second part, the molecule after the results:

| pKi | SMILES |
| --- | --- |
| 5.20 | CCCCC[C@H](CN(O)C=O)C(=O)NNc1nccc(C(F)(F)F)n1 [PDF inhibitor, compound 1] |
| 4.59 | O=CC(O)CCNC(=O)c1cccc(Cl)c1Cl (stereo unspecified) [PDF inhibitor, compound 4] |
| 7.27 | Cc1ccccc1Nc1nc(N2CCN(c3ccccc3Cl)CC2)nc(N2CSC[C@H]2COCC(=O)NO)n1 [PDF inhibitor, compound 8] |
